How the values were obtained:
[1] = assay type: in vitro ADME, Dutch Belted rabbits; details: Dutch Belted, rabbit, 1 μM, pH 6
Protocol: Dutch Belted rabbits were euthanized with an overdose of sodium pentobarbital. The corneas were collected and homogenized in ice-cold potassium chloride solution (pH=7.4). The homogenate was centrifuged at 755×g for 30 min at 4° C. and aliquots of the supernatant were stored at or below −70° C. until metabolism experiments were conducted. Prior to storing the homogenates an aliquot was removed for determination of protein concentrations by calculating the 260 nm absorbance using a spectrophotometer. Human recombinant carboxylesterases were purchased from a commercial vendor (BD Gentest™, Bedford, Mass.)
All metabolic stability experiments were performed in triplicate in 96-well plate format. The final incubation mixture contained 1 μM test compound, 0.3 mg/mL corneal protein homogenate or 0.1 mg/mL human recombinant carboxylesterase mixture in a final volume of 0.5 mL 0.1M potassium phosphate buffer (pH=6.0). The final percentage of solvent in the incubation was less than 1.0% to prevent inhibition of enzymatic activity. Following a pre-incubation at 37° C., test article was added to initiate the reaction. At designated time points (typically less than 60 minutes to capture the linear range of metabolite formation), 0.05 mL aliquots were removed from the incubation mixtures using a clean pipet tip and immediately placed in organic solvent to stop any esterase activity. The hydrolysis to the metabolites was confirmed to be due to esterase activity and not chemical lability.
The samples were analyzed by liquid chromatography with mass spectrometry (LC-MS/MS) detection to determine the metabolite concentrations resulting from the metabolism of the hybrid compounds. Internal standards were used to compensate for variability from sample processing, chromatographic elution, mass spectrometer response and ion suppression by matrix components.

[2] = Ocular pharmacokinetics following a single topical ophthalmic administration in rabbits; assay type: in vivo, New Zealand White Rabbits; details: single topical ocular dose of 0.4% (w/v) solution; cornea, aqueous humor, conjunctiva, eyelid margin; FIG. 2
Protocol: Rabbits were dosed once by ocular instillation to both eyes with each compound formulated in a 0.4% (w/v) solution. At 0.25, 0.5, 1, 2, 6, and 10 hours post dose cornea, aqueous humor, conjunctiva and eyelid margin were collected and stored at approximately −70° C. until bioanalysis. Ocular tissue samples were analyzed by liquid chromatography with mass spectrometry (LC-MS/MS) detection to determine the parent (i.e., ester linked hybrids) and metabolite (i.e. steroid and antibiotic) concentrations resulting from the metabolism of ester linked hybrids. Internal standards were used to compensate for variability from sample processing, chromatographic elution, mass spectrometer response and ion suppression by matrix components.

SMILES | Rate of formation Metabolite 1 (Betamethasone) [1] | Rate of formation Metabolite 2 (Gatifloxacin) [1] | Rate of formation Metabolite 1 (Dexamethasone) [1] | Rate of formation Metabolite 1 (Prednisolone) [1] | uptake into ocular tissues and cleavage to Prednisolone and Gatifloxacin (AUC0-10hr) [2]
COc1c(N2CCNC(C)C2)c(F)cc2c(=O)c(C(=O)OCC(=O)[C@]3(O)[C@H](C)C[C@@H]4[C@H]5CCC6=CC(=O)C=C[C@@]6(C)[C@]5(F)[C@H](O)C[C@]43C)cn(C3CC3)c12 (relative stereo) [Compound 1, 2-[(8R,9S,10R,11R,13R,14R,16R,17S)-9-fluoro-11,17-dihydroxy-10,13,16-trimethyl-3-oxo-6,7,8,9,10,11,12,13,14,15,16,17-dodecahydro-3H-cyclopenta[a]phenanthren-17-yl]-2-oxoethyl rel-1-cyclopropyl-6-fluoro-8-methoxy-7-(3-methylpiperazin-1-yl)-4-oxo-1,4-dihydroquinoline-3-carboxylate] | 7.27 ± 0.58 nM/min/mg | 4.45 ± 0.28 nM/min/mg | – | – | –
COc1c(N2CCNC(C)C2)c(F)cc2c(=O)c(C(=O)OCC(=O)[C@]3(O)[C@@H](C)C[C@@H]4[C@H]5CCC6=CC(=O)C=C[C@@]6(C)[C@]5(F)[C@H](O)C[C@]43C)cn(C3CC3)c12 (relative stereo) [Compound 7, 2-[(8R,9S,10R,11R,13R,14R,16S,17S)-9-fluoro-11,17-dihydroxy-10,13,16-trimethyl-3-oxo-6,7,8,9,10,11,12,13,14,15,16,17-dodecahydro-3H-cyclopenta[a]phenanthren-17-yl]-2-oxoethyl rel-1-cyclopropyl-6-fluoro-8-methoxy-7-(3-methylpiperazin-1-yl)-4-oxo-1,4-dihydroquinoline-3-carboxylate] | – | 4.93 ± 0.48 nM/min/mg | 7.31 ± 0.62 nM/min/mg | – | –
COc1c(N2CCNC(C)C2)c(F)cc2c(=O)c(C(=O)OCC(=O)[C@]3(O)CC[C@@H]4[C@H]5CCC6=CC(=O)C=C[C@@]6(C)[C@@H]5[C@H](O)C[C@]43C)cn(C3CC3)c12 (relative stereo) [Compound 12, 2-[(8R,9R,10S,11R,13R,14R,17S)-11,17-dihydroxy-10,13-dimethyl-3-oxo-6,7,8,9,10,11,12,13,14,15,16,17-dodecahydro-3H-cyclopenta[a]phenanthren-17-yl]-2-oxoethyl rel-1-cyclopropyl-6-fluoro-8-methoxy-7-(3-methylpiperazin-1-yl)-4-oxo-1,4-dihydroquinoline-3-carboxylate] | – | 3.46 ± 0.50 nM/min/mg | – | 6.02 ± 0.63 nM/min/mg | taken up into rabbit ocular tissues and enzymatically hydrolyzed to the individual antibiotic and steroid
